Patent US10322110B2, “Imidazole-based antimicrobial agents” (priority 2014, dated 2019)
Converted amounts (≈) assume the structure as drawn. Like-named read-outs stand apart in the source and are kept apart here.

Columns and labels:
Assay type in all cases: cell-based
[1] = test system: Streptococcus pneumoniae (Chester, ATCC49619); test: broth microdilution MIC assay, Streptococcus pneumoniae; conditions: MIC100 class score, 24 h
[2] = test system: Staphylococcus aureus MSSA (Newman); test: broth microdilution MIC assay, Staphylococcus aureus MSSA (Newman); conditions: for Antibacterial activity Staphylococcus aureus (MSSA): MIC100 class score, broth microdilution; for MIC: Staphylococcus aureus
[3] = test system: Staphylococcus aureus MRSA (COL); test: broth microdilution MIC assay, Staphylococcus aureus MRSA (COL); conditions: 24 h; for Antibacterial activity Staphylococcus aureus (MRSA): MIC100 class score, broth microdilution; for MIC: Staphylococcus aureus, MRSA, read-out: Antibacterial activity Staphylococcus aureus (MRSA)
[4] = 24 h, read-out: Antibacterial activity Staphylococcus aureus (MSSA)

SMILES | Antibacterial activity Streptococcus pneumoniae [1] | MIC [2, 4] [µg/mL] | MIC [3] [µg/mL] | also measured
Cc1[nH]c(-c2ccc(-c3ccc(F)cc3)s2)nc1-c1ccccc1 [Compound 7] | 3 (MIC100 of 2-5 μg/ml) |  |  | 
Cc1[nH]c(-c2csc(-c3ccc(F)cc3)n2)nc1-c1ccccc1 [Compound 11] | 3 (MIC100 of 2-5 μg/ml) |  |  | 
Cc1[nH]c(-c2ccc(-c3cccc(Cl)c3)s2)nc1-c1ccccc1 [Compound 12] | 3 (MIC100 of 2-5 μg/ml) |  |  | 
Cc1[nH]c(-c2ccc(-c3cccc(Br)c3)s2)nc1-c1ccccc1 [Compound 13] | 2 (MIC100 of 6-10 μg/ml) |  |  | 
Cc1[nH]c(-c2csc(-c3cccc(Br)c3)n2)nc1-c1ccccc1 [Compound 14] | 3 (MIC100 of 2-5 μg/ml) |  |  | 
Cc1[nH]c(-c2ccc(-c3ccccc3C(F)(F)F)o2)nc1-c1cccc(Cl)c1 [Compound 22] | 3 (MIC100 of 2-5 μg/ml) |  |  | Antibacterial activity Staphylococcus aureus (MSSA) ([2]; 24 h): 2 (MIC100 of 11-201 μg/ml); MIC ([2]; read-out: Antibacterial activity MSSA (Staphylococcus aureus MSSA)): 11 to 201 µg/mL (≈ 27.3 to 499 µM)
Cc1ccc(-c2ccc(-c3nc(-c4ccccc4)c(C)[nH]3)s2)cc1 [Compound 54] | 2 (MIC100 of 6-10 μg/ml) |  |  | 
Cc1ccc(-c2ncc(-c3nc(-c4ccccc4)c(C)[nH]3)s2)cc1 [Compound 55] | 3 (MIC100 of 2-5 μg/ml) |  |  | 
Cc1ccc(-c2nc(-c3nc(-c4ccccc4)c(C)[nH]3)cs2)cc1 [Compound 56] | 3 (MIC100 of 2-5 μg/ml) |  |  | 
Cc1ccc(-c2nc(-c3nc(-c4ccccc4)c(C)[nH]3)co2)cc1 [Compound 57] | 3 (MIC100 of 2-5 μg/ml) |  |  | 
Cc1[nH]c(-c2ccc(-c3ccccc3)s2)nc1-c1ccccc1 [Compound 74] | 3 (MIC100 of 2-5 μg/ml) |  |  | 
FC(F)(F)c1ccccc1-c1ccc(-c2ncc(-c3ccccc3)[nH]2)o1 [Compound 75] |  | 11 to 201 (≈ 31 to 567 µM) |  | 
Cc1[nH]c(-c2ccc(-c3ccccc3OC(F)(F)F)o2)nc1-c1ccc(O)cc1 [Compound 76] | 3 (MIC100 of 2-5 μg/ml) |  |  | Antibacterial activity Staphylococcus aureus (MSSA) ([2]; 24 h): 3 (MIC100 of 3-10 μg/ml)
Cc1[nH]c(-c2ccc(-c3ccccc3F)o2)nc1-c1ccc(O)cc1 [Compound 77] | 3 (MIC100 of 2-5 μg/ml) |  |  | Antibacterial activity Staphylococcus aureus (MSSA) ([2]; 24 h): 3 (MIC100 of 3-10 μg/ml)
COc1ccc(-c2ccc(-c3nc(C)c(-c4ccc(O)cc4)[nH]3)o2)cc1 [Compound 79] | 3 (MIC100 of 2-5 μg/ml) |  |  | 
CCCc1[nH]c(-c2ccc(-c3ccccc3Cl)s2)nc1C [Compound 82] |  |  |  | Antibacterial activity Staphylococcus aureus (MRSA) [3]: 3 (MIC100 of 3-10 μg/ml)
Brc1ccccc1-c1ccc(-c2ncc(-c3ccccc3)[nH]2)o1 [Compound 83] | 3 (MIC100 of 2-5 μg/ml) |  |  | 
Cc1nc(-c2ccc(-c3ccccc3Br)o2)[nH]c1C [Compound 84] |  |  | 11 to 201 (≈ 34.7 to 634 µM) | 
Cc1nc(-c2ccc(-c3ccccc3OC(F)(F)F)o2)[nH]c1C [Compound 85] |  |  | 1 to 3 (≈ 3.1 to 9.31 µM) | 
CCCCc1nc(-c2ccc(-c3ccccc3C(F)(F)F)o2)[nH]c1C [Compound 90] | 3 (MIC100 of 2-5 μg/ml) |  |  | 

SMILES | Antibacterial activity Streptococcus pneumoniae [1] | MIC [2, 4] [µg/mL] | MIC [3] [µg/mL] | also measured
CCCc1nc(-c2ccc(-c3ccccc3N(C)C)o2)[nH]c1C [Compound 98] |  |  |  | Antibacterial activity Staphylococcus aureus (MRSA) [3]: 3 (MIC100 of 3-10 μg/ml)
CCCc1[nH]c(-c2ccc(-c3ccccc3C(F)(F)F)o2)nc1C [Compound 101] | 3 (MIC100 of 2-5 μg/ml) |  |  | 
CCCc1nc(-c2ccc(-c3ccccc3OC)o2)[nH]c1C [Compound 102] | 3 (MIC100 of 2-5 μg/ml) |  |  | 
CCCc1[nH]c(-c2ccc(-c3ccc(Cl)cc3Cl)o2)nc1C [Compound 109] |  |  |  | Antibacterial activity Staphylococcus aureus (MRSA) [3]: 2 (MIC100 of 11-201 μg/ml)
CCCc1[nH]c(-c2ccc(-c3cc(F)ccc3C(F)(F)F)o2)nc1C [Compound 111] | 3 (MIC100 of 2-5 μg/ml) |  |  | 
CCCc1nc(-c2coc(-c3ccccc3C(F)(F)F)c2)[nH]c1C [Compound 112] |  |  |  | Antibacterial activity Staphylococcus aureus (MRSA) [3]: 3 (MIC100 of 3-10 μg/ml)
CCCc1nc(-c2csc(-c3ccccc3C(F)(F)F)c2)[nH]c1C [Compound 113] |  |  |  | Antibacterial activity Staphylococcus aureus (MRSA) [3]: 3 (MIC100 of 3-10 μg/ml)
CCCc1nc(-c2sc(-c3ccccc3C(F)(F)F)c3c2OCCO3)[nH]c1C [Compound 114] |  |  |  | Antibacterial activity Staphylococcus aureus (MRSA) [3]: 3 (MIC100 of 3-10 μg/ml)
COc1cccc(-c2nc(-c3nc(-c4ccccc4)c(C)[nH]3)cs2)c1 [Compound 116] | 3 (MIC100 of 2-5 μg/ml) |  |  | 
Cc1[nH]c(-c2ccc(-c3cccc(F)c3)s2)nc1-c1ccccc1 [Compound 117] |  | 20 to 50 (≈ 59.8 to 150 µM) |  | 
Cc1nc(-c2ccc(-c3ccc(O)cc3F)o2)[nH]c1-c1ccc(O)cc1 [Compound 120] | 3 (MIC100 of 2-5 μg/ml) |  |  | Antibacterial activity Staphylococcus aureus (MSSA) ([2]; 24 h): 2 (MIC100 of 11-201 μg/ml)
Fc1ccc(-c2ccc(-c3nc4ccccc4[nH]3)o2)cc1 [Compound 121] | inactive |  |  | 
Fc1ccc(-c2ccc(-c3nc4ccccc4[nH]3)o2)c(F)c1 [Compound 122] | inactive |  |  | 
Cc1nc(-c2ccc(-c3cccc4[nH]ccc34)o2)[nH]c1-c1ccccc1 [Compound 138] |  |  | 11 to 201 (≈ 32.4 to 592 µM) | 
Cc1nc(-c2ccc(-c3ccc(O)cc3C(F)(F)F)o2)[nH]c1-c1ccccc1 [Compound 139] |  | 1 to 3 (≈ 2.6 to 7.81 µM) | 1 to 3 (≈ 2.6 to 7.81 µM) | 
Cc1nc(-c2ccc(-c3cc4ccccc4o3)o2)[nH]c1-c1ccccc1 [Compound 140] |  |  | 11 to 201 (≈ 32.3 to 591 µM) | 
Cc1nc(-c2ccc(-c3ccc(N4CCN(C)CC4)cc3)o2)[nH]c1-c1ccccc1 [Compound 141] |  |  | 20 to 50 (≈ 50.2 to 125 µM) | 
Cc1nc(-c2ccc(-c3cccc(C(F)(F)F)c3)o2)[nH]c1-c1ccccc1 [Compound 142] |  | 1 to 3 (≈ 2.71 to 8.14 µM) | 1 to 3 (≈ 2.71 to 8.14 µM) | 
Cc1nc(-c2ccc(-c3ccc4[nH]ccc4c3)o2)[nH]c1-c1ccccc1 [Compound 144] |  | 3 to 10 (≈ 8.84 to 29.5 µM) | 3 to 10 (≈ 8.84 to 29.5 µM) | 
Cc1nc(-c2ccc(-c3cccc(O)c3)o2)[nH]c1-c1ccccc1 [Compound 145] |  | 11 to 201 (≈ 34.8 to 635 µM) | 20 to 50 (≈ 63.2 to 158 µM) | 

SMILES | Antibacterial activity Streptococcus pneumoniae [1] | MIC [2, 4] [µg/mL] | MIC [3] [µg/mL] | also measured
Cc1nc(-c2ccc(-c3cccc(F)c3)o2)[nH]c1-c1ccccc1 [Compound 146] |  | 3 to 10 (≈ 9.42 to 31.4 µM) | 3 to 10 (≈ 9.42 to 31.4 µM) | 
Cc1nc(-c2ccc(-c3ccc(F)cc3F)o2)[nH]c1-c1ccccc1 [Compound 147] |  | 1 to 3 (≈ 2.97 to 8.92 µM) | 1 to 3 (≈ 2.97 to 8.92 µM) | 
Cc1nc(-c2ccc(-c3ccc(F)cc3)o2)[nH]c1-c1ccccc1 [Compound 148] |  | 3 to 10 (≈ 9.42 to 31.4 µM) | 3 to 10 (≈ 9.42 to 31.4 µM) | 
Cc1nc(-c2ccc(-c3ccccc3O)o2)[nH]c1-c1ccccc1 [Compound 149] |  | 11 to 201 (≈ 34.8 to 635 µM) | 20 to 50 (≈ 63.2 to 158 µM) | 
Cc1nc(-c2ccc(-c3ccc(O)cc3)o2)[nH]c1-c1ccccc1 [Compound 150] |  | 11 to 201 (≈ 34.8 to 635 µM) | 11 to 201 (≈ 34.8 to 635 µM) | 
Cc1nc(-c2ccc(-c3ccc4cc[nH]c4c3)o2)[nH]c1-c1ccccc1 [Compound 152] |  | 3 to 10 (≈ 8.84 to 29.5 µM) | 3 to 10 (≈ 8.84 to 29.5 µM) | 
Cc1nc(-c2ccc(-c3ccc(F)c(F)c3)o2)[nH]c1-c1ccccc1 [Compound 153] |  | 3 to 10 (≈ 8.92 to 29.7 µM) | 3 to 10 (≈ 8.92 to 29.7 µM) | 
Cc1nc(-c2ccc(-c3ccc4cc(O)ccc4c3)o2)[nH]c1-c1ccccc1 [Compound 154] |  | 11 to 201 (≈ 30 to 549 µM) | 11 to 201 (≈ 30 to 549 µM) | 
Cc1nc(-c2ccc(-c3ccc(O)c(C(F)(F)F)c3)o2)[nH]c1-c1ccccc1 [Compound 155] |  | 3 to 10 (≈ 7.81 to 26 µM) | 11 to 201 (≈ 28.6 to 523 µM) | 
Cc1nc(-c2ccc(-c3ccc(O)c(Cl)c3)o2)[nH]c1-c1ccccc1 [Compound 157] |  | 3 to 10 (≈ 8.55 to 28.5 µM) | 11 to 201 (≈ 31.4 to 573 µM) | 
Cc1nc(-c2ccc(-c3ccc(O)cc3Cl)o2)[nH]c1-c1ccccc1 [Compound 158] |  | 1 to 3 (≈ 2.85 to 8.55 µM) | 1 to 3 (≈ 2.85 to 8.55 µM) | 
Cc1nc(-c2ccc(-c3ccc4occc4c3)o2)[nH]c1-c1ccccc1 [Compound 159] |  | 3 to 10 (≈ 8.81 to 29.4 µM) | 20 to 50 (≈ 58.8 to 147 µM) | 
Cc1nc(-c2ccc(-c3cc4ccccc4[nH]3)o2)[nH]c1-c1ccccc1 [Compound 160] |  | 3 to 10 (≈ 8.84 to 29.5 µM) | 11 to 201 (≈ 32.4 to 592 µM) | 
Cc1nc(-c2ccc(-c3cccc4cc[nH]c34)o2)[nH]c1-c1ccccc1 [Compound 161] |  | 3 to 10 (≈ 8.84 to 29.5 µM) | 1 to 3 (≈ 2.95 to 8.84 µM) | 
Cc1[nH]c(-c2ccc(-c3ccccc3F)o2)nc1-c1ccccc1 [Compound 162] |  | 3 to 10 (≈ 9.42 to 31.4 µM) | 3 to 10 (≈ 9.42 to 31.4 µM) | 
Cc1cc(F)ccc1-c1ccc(-c2nc(-c3ccccc3)c(C)[nH]2)o1 [Compound 164] |  | 3 to 10 (≈ 9.03 to 30.1 µM) |  | 
Cc1[nH]c(-c2cnn(-c3ccc(F)cc3)c2)nc1-c1ccccc1 [Compound 166] |  | 20 to 50 (≈ 62.8 to 157 µM) | 20 to 50 (≈ 62.8 to 157 µM) | 
Cc1[nH]c(-c2cnn(-c3ccccc3)c2)nc1-c1ccccc1 [Compound 167] |  |  | 20 to 50 (≈ 66.6 to 166 µM) | 
Cc1nc(-c2ccc(-c3ccc(O)cc3F)o2)[nH]c1-c1ccccc1 [Compound 168] |  | 3 to 10 (≈ 8.97 to 29.9 µM) | 3 to 10 (≈ 8.97 to 29.9 µM) | 
